From US8318954B2, “Cleavable carnitine compound” (Nou Life Sciences, Inc., priority 2006, dated 2012)
Read-outs that look alike come from different tables or passages of the source.

Columns and labels:
C. elegans [1] = test: Visual scoring of C. elegans after overnight incubation with compound in 24 well plate; type: in vivo; settings: DHLA1, 1:500 final concentration in well; 19 h incubation; L3/L4-stage N2 animals
Description: (§1) One 24 well microtiter plate was set up and incubated overnight on the shaker at 20 C. Each well on the plate was set up with 600 L3/L4-stage N2 animals in NGM with a 1:20 dilution of concentrated HB101 E. coli (food source) in a volume of 300 μl. Before the animal/HB101 solution was added, test compounds were pipetted into wells. For water controls and compound stocks/dilutions in water (DHLA, NAC) 6 μl was added to each well (1:50 dilutions). For DMSO controls and compound stocks/dilutions in DMSO (LA) 3 μl was added to each well (1:100 dilutions). No OD620 measurements were taken but the animals were visually scored after 19 h incubation.
as §1, with “at 20°” for “at 20”, “For” for “For water controls and compound stocks/dilutions in water (DHLA, NAC) 6 μl was added to each well (1:50 dilutions). For”, “DMSO (LC)” for “DMSO (LA)”, “h incubation).” for “h incubation.”
as §1, with “at 20°” for “at 20”, “For” for “For water controls and compound stocks/dilutions in water (DHLA, NAC) 6 μl was added to each well (1:50 dilutions). For”, “DMSO (LC)” for “DMSO (LA)”, “after 22” for “after 19”, “h incubation).” for “h incubation.”

C. elegans [2] = test: Thermal avoidance (TAV) 3 step dose response testing; type: in vivo; settings: for effects indicating increased sensory sensitivity: 0%, 6%, 12% laser intensity
From the text: The present invention includes a series of compounds that may be useful for increasing sensory neuron function in certain human neuropathological conditions. C. elegans contains a number of sensory neurons which are responsible for detecting a variety of external stimuli. One such stimulus (heat) can be detected and quantified in C. elegans by the use of thermal avoidance (TAV) technology available through NemaRx. The goal of this experiment was to provide an initial characterization of the compounds via TAV. Specifically, it was asked whether any of these compounds can lead to an increase in the thermal stimulus-induced behavioral response measured by TAV. N2 strain C. elegans animals were used for this project, which have ‘normal’, i.e. wildtype, sensory neuron function. Four compounds were received by NemaRx for TAV testing. These compounds were:
as §1
Dose Responses—setup: All of the wells from the 24 well plate were used for dose response testing and the entire well contents (600 animals) were used for each test. Prior to being placed on the agar plate for TAV testing each sample was processed as follows: • sample were transferred to glass tube containing 7 ml PBS • animals were allowed to settle for 5 minutes before most of the supernatant was removed (approx. 0.5 ml remaining in tube) • 7 ml PBS was then added, mixed and animals were allowed to settle for 5 minutes most of the supernatant was then removed • animals were removed and transferred to TAV testing plate (NRx Application pattern A) • plate was allowed to dry for 10 minutes (plate cover removed) and TAV testing was initiated. Per plate settings for the dose response experiments were as follows:
Dose Responses—general notes on analysis: A response of the animals to a thermal stimulus (laser) which is applied to the head region can be detected both by a change in the direction of movement, as well as by a change in speed occurring within the test interval where the stimulus is applied. • direction of movement. […] Animals that show a strong change in the direction of movement, i.e. reversals, are classified as LR5 responders. […] LR5 responders show a thermal intensity-dependent increase in the speed of movement (starting off with less than <prelaser speed at low intensities up to > pre-laser speed at high intensities)
The dose response experiments for the current project were carried out with 0% (background control), 6% and 12% settings of laser intensity. In practice, 6% is on the edge of laser intensity required to detect an increase in the number of LR5 responders. As such, 6% should be a useful intensity-setting to detect compound-induced increased sensitivity in the animals. The 12% setting was chosen because this intensity typically gives a robust increase in the number of LR5 responders.
Total Responder speeds, ‘LR1 Responder speeds’ and ‘LR5 Responder speeds’ are shown as normalized speeds to allow better comparison between samples. For normalization purposes the average pre-laser speed is set at 1.0 and responder speeds are calculated relative to this value.
One 24 well microtiter plate was set up and incubated overnight on the shaker at 20° C. Each well on the plate was set up with 600 L3/L4-stage N2 animals in NGM with a 1:20 dilution of concentrated HB101 E. coli (food source) in a volume of 300 μl. […]

C. elegans [3] = test: Thermal avoidance (TAV) single intensity testing (6% laser intensity); type: in vivo
Description: (§2) One 24 well microtiter plate was set up and incubated overnight on the shaker at 20° C. Each well on the plate was set up with 600 L3/L4-stage N2 animals in NGM with a 1:20 dilution of concentrated HB101 E. coli (food source) in a volume of 300 μl. Before the animal/HB101 solution was added, test compounds were pipetted into wells. 3 μl each for the DMSO controls and LA dilutions were added to each well (1:100 dilutions). Controls and LA dilutions were done in triplicate (total of 9 wells).
6% Response tests—setup: All 9 wells from the 24 well plate were used for 6% testing and the entire well contents (600 animals) were used for each test. Prior to being placed on the agar plate for TAV testing each sample was processed as described for ‘Dose Responses’.
Dose Responses—general notes on analysis: Analysis similar as described in ‘Dose Responses’. In addition, ‘Response ratios’ as well as ‘A Speed responses’ both give measures of how much individual animals changed speed in response to the stimulus (additional information available upon request).
as §2, with “wells. 6” for “wells. 3”, “the water” for “the DMSO”, “and compound” for “and LA”, “well (1:50” for “well (1:100”, “of 15” for “of 9”
6% Response tests—setup: All 15 wells from the 24 well plate were used for 6% testing) and the entire well contents (600 animals) were used for each test. Prior to being placed on the agar plate for TAV testing each sample was processed as described for ‘Dose Responses’.
as §2, with “LC” for “LA”

mice and rats = settings: individually or in combination at high doses, mice and rats; cited from earlier work
rats [4] = settings: cited from earlier work
rats [5] = settings: 10 mg/kg cisplatin s.c. seven days, oral 300 mg/kg acetyl L-carnitine, 300 mg/kg carnitine mixture, 50 mg/kg α-lipoic acid; cited from earlier work
[6] = system: patients with chronic critical limb ischaemia; settings: 1.2 g/day i.v. infusion for two weeks with calcium heparin 25,000 U/day s.c.; over baseline; cited from earlier work
[7] = system: male patients with intermediate claudication; settings: cited from earlier work; for TcPCO: after treatment
C. elegans [8] = test: Toxicity testing in C. elegans, 96 well plate, bacterial clearance (OD620); type: in vivo; settings: highest concentration tested, 8 mM, L1-stage N2 animals, OD620 up to 44 hours, HCl
Description: The work plan included a i) characterization of the compounds for toxicity in C. elegans and then, using subtoxic concentrations, a ii) characterization of compound effects on neuronal sensitivity as detected by TAV technology. Toxicity characterization follows a well established standard operating protocol used in previous toxicity-type assays in C. elegans. The initial TAV characterization of compound-mediated effects on C. elegans used a number of compound concentrations and incubation times that were selected by NemaRx as being most likely to detect any TAV-related effects that the compounds may have. […] 0% provides a ‘background’ measure, 6% typically gives intermediate TAV responses (and as such should provide a good starting point to detect compound-mediated increased TAV responses), and 12% usually gives robust responses. No obvious effects were detected for either of the four compounds. While the experimental setup provides a good first pass, the limitation lies in the relatively small number of animals that are assayed at each intensity (30). Subtle effects compound-mediated up-regulation at 6% laser intensity may be missed. • Single Intensity Testing: The two highest non-toxic compound concentrations for each of the four compounds were tested at 6% laser intensity. The number of datapoints collected was between 50-80 LA and >100 for the three other compounds. […] The experiment was carried out in quadruplicate. […] Stock Dilution Setup
Two 96 well microtiter plates set up which were incubated at 20 C (both 96 well plates were identical, i.e. the experiment was done in duplicate). Each well on the plates was set up with 100 L1-stage N2 animals in NGM with a 1:20 dilution of concentrated HB101 E. coli (food source) in a volume of 50 μl. Compounds (see below) were then added to the wells. For water controls and compound stocks/dilutions in water (DH LA, NAC) 1 μl was added to each well (1:50 dilutions). For DMSO controls and compound stocks/dilutions in DMSO (LA) 0.5 μl was added to each well (1:100 dilutions). […]

[9] = after 600 mg i.v. infusion, compared to pre-treatment values

O=C(O)CCCC[C@@H](S)CCS (racemic) [DHLA, Dihydrolipoic acid]
visual scoring of well clearance (C. elegans [1]): some bacteria remaining
effects indicating increased sensory sensitivity (C. elegans [2]; even at highest concentration of 1:500): No obvious effects detected
percentage of LR5 responders at 6% (C. elegans [2]; second highest concentration (DHLA2)): relatively high
effect such as increased percentage of LR5 responders (C. elegans [3]; 1:1,000 or 1:2,500): No obvious effect detected
response of animals that show a LR5 response ('Responder ratios', 'A Speed responses') (C. elegans [3]; 1:2,500 concentration): slightly stronger response

C[N+](C)(C)CC(O)CC(=O)[O-] (centres unmarked) [Carnitine]
tolerability and toxicity (mice and rats): good tolerability and limited toxicity
area of skin flap necrosis (rats [4]; group 1, 50 mg/kg/day for 1 week): 12.55 cm^2
area of skin flap necrosis (rats [4]; group 2, 100 mg/kg/day for 1 week): 9.23 cm^2

N.N.[Cl][Pt][Cl] [Cisplatin]
Equilibrium time (rats [5]): 8.4 ± 0.8 s

CCC(=O)O[C@H](CC(=O)[O-])C[N+](C)(C)C [L-Propionyl Carnitine]
decrease in mean pain score [6]: 83%
decrease in mean ulcer size (diameter) [6]: 48%
increase in mean pain free walking distance (PWD) [6]: 78%
Perfusion units [7, 9]: did not change significantly
TcPO [7, 9]: did not change significantly
resting TcPCO ([7]; after 600 mg i.v. infusion): no significant effects
TcPCO ([7]; at hypoxia point): 90.2 mm Hg
Mean laser-Doppler power spectrum ([7]; at rest, after 600 mg i.v. infusion): 0.89 units
Mean laser-Doppler power spectrum ([7]; during reperfusion, after 600 mg i.v. infusion): 2.24 units
TcPCO ([7]; during reperfusion): 103.5 mm Hg

CC(=O)O[C@H](CC(=O)O)C[N+](C)(C)C.[Cl-] [NAC, N-Acetyl carnitine HCl]
effects indicating increased sensory sensitivity (C. elegans [2]; even at highest concentration of 8 mM): No obvious effects detected
toxicity (C. elegans [8]): No toxic effects
toxicity (C. elegans [8]; listed as N-Acetyl carnitine): no toxicity observed
effects indicating increased sensory sensitivity (C. elegans [3]; 8 mM or 4 mM): No effects detected
